Test results as given in the supplement of paper PMC11127212.

Legend:
[1] = retention time on BEH HILIC column (20 min gradient, 0.4 mL/min); higher = later elution; details: LC: HILIC
Procedure: (§1)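 Reference standards (20-100 uM) were separated by HILIC UPLC (BEH HILIC, 45 °C): acidic pH 3.0 ammonium formate/formic acid for ESI+ and basic pH 9.0 ammonium acetate/ammonia for ESI-. They were analysed on a Synapt G2-Si traveling-wave IMS-QTOF with nitrogen drift gas (WH 30 V; WV 800 m/s in ESI+ and 1000 m/s in ESI-).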

[2] = collision cross section (TWIMS, N2) of ion [M-H]-; higher = larger gas-phase ion cross section; details: ionization: ESI negative; LC: HILIC, pH 9.0 ammonium acetate
Procedure: as §1

[3] = collision cross section (TWIMS, N2) of ion [M+H-H2O]+; higher = larger gas-phase ion cross section; details: ionization: ESI positive; LC: HILIC, pH 3.0 ammonium formate
Procedure: as §1, with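 “ESI-). CCS (TWCCSN2, Å2) was calibrated with Major Mix IMS/TOF and LockCCS leucine enkephalin; inter-day RSD was <1%.” for “ESI-).”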

[4] = collision cross section (TWIMS, N2) of ion [M+H]+; higher = larger gas-phase ion cross section; details: ionization: ESI positive; LC: HILIC, pH 3.0 ammonium formate
Procedure: as §1

[5] = collision cross section (TWIMS, N2) of ion [M+Na-2H]-; higher = larger gas-phase ion cross section; details: ionization: ESI negative; LC: HILIC, pH 9.0 ammonium acetate
Procedure: as §1, with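 “ESI-). CCS (TWCCSN2, Å2) was calibrated with Major Mix IMS/TOF and LockCCS leucine enkephalin; inter-day RSD was <1%.” for “ESI-).”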

[6] = collision cross section (TWIMS, N2) of ion [M+Na]+; higher = larger gas-phase ion cross section; details: ionization: ESI positive; LC: HILIC, pH 3.0 ammonium formate
Procedure: as §1, with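 “ESI-). CCS (TWCCSN2, Å2) was calibrated with Major Mix IMS/TOF and LockCCS leucine enkephalin; inter-day RSD was <1%.” for “ESI-).”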

[7] = collision cross section (TWIMS, N2) of ion [M]+; higher = larger gas-phase ion cross section; details: ionization: ESI positive; LC: HILIC, pH 3.0 ammonium formate
Procedure: as §1, with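 “ESI-). CCS (TWCCSN2, Å2) was calibrated with Major Mix IMS/TOF and LockCCS leucine enkephalin; inter-day RSD was <1%.” for “ESI-).”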

[8] = ionization: ESI negative, pH 9.0 ammonium acetate
[9] = ionization: ESI positive, pH 3.0 ammonium formate

With `Cc1cccc(O)c1` [m-cresol] the “retention time on BEH HILIC column” value [1, 8] was 0.75 min, the “retention time on BEH HILIC column” value [1, 9] was 0.77 min and the collision cross section [2] was 122.73 Å². For the same compound, the collision cross section [3] was 123.87 Å² and the collision cross section [4] was 126.19 Å².

In the case of `CCCCCC/C=C\CCCCCCCC(=O)O` [Palmitoleic acid], the “retention time on BEH HILIC column” value [1, 8] is reported as 1.03 min, the “retention time on BEH HILIC column” value [1, 9] is reported as 0.79 min and the collision cross section [2] is reported as 173.54 Å². It also gave a collision cross section [3] of 161.08 Å² and a collision cross section [4] of 175.21 Å².

In the case of `CCCCCCCC/C=C\CCCCCCCC(=O)O` [Oleic acid], the collision cross section [5] is reported as 184.54 Å², the “retention time on BEH HILIC column” value [1, 8] is reported as 0.75 min and the “retention time on BEH HILIC column” value [1, 9] is reported as 0.73 min. It also gave a collision cross section [2] of 179.19 Å² and a collision cross section [6] of 181.57 Å².

With `O=C(O)[C@@H]1C[C@@H](O)CN1` [Hydroxyproline] the “retention time on BEH HILIC column” value [1, 8] was 7.55 min, the “retention time on BEH HILIC column” value [1, 9] was 7.47 min and the collision cross section [2] was 126.62 Å². It also gave a collision cross section [3] of 123.91 Å² and a collision cross section [4] of 125.85 Å².

In the case of `Nc1ccccc1C(=O)C[C@H](N)C(=O)O` [L-kynurenine], the “retention time on BEH HILIC column” value [1, 9] is reported as 5.74 min, the collision cross section [3] is reported as 140.8 Å² and the collision cross section [4] is reported as 146.07 Å². The collision cross section [6] was 149.75 Å².

With `O=C(O)c1ccc(C(=O)O)o1` [2,5-furandicarboxylic acid] the collision cross section [5] was 129.41 Å² and the “retention time on BEH HILIC column” value [1, 8] was 7.28 min.

For `C[C@@H](CCC(=O)O)CC(=O)O` [3-methyladipic acid], the collision cross section [5] was 135.93 Å², the “retention time on BEH HILIC column” value [1, 8] was 0.93 min and the “retention time on BEH HILIC column” value [1, 9] was 1.05 min. It also gave a collision cross section [2] of 131.84 Å² and a collision cross section [6] of 136.22 Å².

With `O=C(O)Cc1cccc(O)c1` [3-hydroxyphenylacetic acid] the collision cross section [5] was 132.19 Å², the “retention time on BEH HILIC column” value [1, 8] was 0.99 min and the “retention time on BEH HILIC column” value [1, 9] was 0.99 min. For the same compound, the collision cross section [6] was 139.98 Å².

For `Cc1c[nH]c(=O)[nH]c1=O` [Thymine], the “retention time on BEH HILIC column” value [1, 8] was 1.03 min, the “retention time on BEH HILIC column” value [1, 9] was 1.05 min and the collision cross section [2] was 120.89 Å². It also gave a collision cross section [3] of 122.06 Å² and a collision cross section [4] of 120.81 Å².

For `C/C(=C\C(=O)O)CC(=O)O` [3-methylglutaconic acid], the collision cross section [5] was 131.48 Å², the “retention time on BEH HILIC column” value [1, 8] was 1.75 min and the “retention time on BEH HILIC column” value [1, 9] was 1.45 min. It also gave a collision cross section [6] of 132.11 Å².

With `O=c1cc[nH]c(=O)[nH]1` [Uracil] the “retention time on BEH HILIC column” value [1, 8] was 1.08 min, the “retention time on BEH HILIC column” value [1, 9] was 1.08 min and the collision cross section [2] was 115.77 Å². The collision cross section [3] was 120.58 Å² and the collision cross section [4] was 120.27 Å².

In the case of `CC(C)(CO)[C@@H](O)C(=O)NCCC(=O)O` [Pantothenic acid], the “retention time on BEH HILIC column” value [1, 8] is reported as 2.08 min, the “retention time on BEH HILIC column” value [1, 9] is reported as 1.96 min and the collision cross section [2] is reported as 146.44 Å². The collision cross section [3] was 144.55 Å², the collision cross section [4] was 145.63 Å² and the collision cross section [6] was 150.01 Å².

For `Cc1ncc(C[n+]2csc(CCO)c2C)c(N)n1` [Thiamine], the “retention time on BEH HILIC column” value [1, 8] was 8.94 min, the “retention time on BEH HILIC column” value [1, 9] was 8.96 min and the collision cross section [2] was 164.85 Å². For the same compound, the collision cross section [7] was 162.11 Å².

In the case of `O=C(O)CNC(=O)Cc1ccccc1` [Phenylacetylglycine], the “retention time on BEH HILIC column” value [1, 8] is reported as 2.16 min, the “retention time on BEH HILIC column” value [1, 9] is reported as 2.11 min and the collision cross section [2] is reported as 146.28 Å². For the same compound, the collision cross section [3] was 138.2 Å² and the collision cross section [4] was 142.08 Å².
